Experimental data: PMC8960591, “PCSK9 acts as a key regulator of Aβ clearance across the blood–brain barrier” (Cellular and Molecular Life Sciences: CMLS, 2022)

B1: Evolocumab: FDA-approved monoclonal anti-PCSK9 antibody (Amgen) (antibody, chains of the INN, looked up, V domains shown)
VH: EVQLVQSGAEVKKPGASVKVSCKASGYTLTSYGISWVRQAPGQGLEWMGWVSFYNGNTNYAQKLQGRGTMTTDPSTSTAYMELRSLRSDDTAVYYCARGYGMDVWGQGTTVTVSS
VL: ESALTQPASVSGSPGQSITISCTGTSSDVGGYNSVSWYQQHPGKAPKLMIYEVSNRPSGVSNRFSGSKSGNTASLTISGLQAEDEADYYCNSYTSTSMVFGGGTKLTVL

Tests used:
[1] = tested on: 5xFAD mice; experiment: Brain Aβ1–40 and Aβ1–42 ELISA of soluble and insoluble brain fractions after repetitive anti-PCSK9 antibody injection; assay type: in vivo, mouse; settings: n = 4–14 per group
Protocol: (§1) 14-weeks-old female 5xFAD transgenic or wildtype littermates were randomized into groups with similar average body weights (18–20 g), respectively. 1 µg/g Alirocumab (Sanofi), Evolocumab (Amgen), or non-specific human IgG2 control antibody (Bio X Cell) in 0.9% isotonic saline solution (BBraun) or the analogous volume of pure 0.9% isotonic saline solution were weekly i.p. injected for a period of 10 weeks. 7 days before starting the injection procedure LRP1^BE−/− was induced by i.p. injection of 75 µg/g tamoxifen (Sigma-Aldrich) for 5 consecutive days and maintained with chow containing 400 mg/kg tamoxifen citrate (LASvendi). To sacrifice animals, mice were anesthetized with 100 µg/g ketamine (Pfizer) in combination with 10 µg/g xylazine (Bayer HealthCare) and euthanized by cervical dislocation.
Extracted blood was supplemented with an EDTA-free protease inhibitor cocktail (Roche Applied Science) and allowed to clot at room temperature for 10 min. Liver were weighed and homogenized in 3 ml/g fresh cold tissue lysis buffer [50 mmol/l Tris (pH 7.4), 150 mmol/l NaCl, 0.1% (w/v) SDS, 1% (v/v) Nonidet P-40, 0.5% (w/v) sodium deoxycholate, 1 mmol/l EDTA (pH 7.4)] containing an EDTA-free protease inhibitor cocktail using the Precellys Lysing Kit (Bertin instruments). Extracts were purified for 3 min (18,620 rcf, 4 °C). CSF samples were isolated via puncture of cisterna magna as described previously and purified for 10 min (1000 rcf, 4 °C). Brains were weighed and soluble and insoluble brain fractions sequential extracted. Initially, homogenization by a glass homogenizer occurred in 6 ml/g PBS, containing an EDTA-free protease inhibitor cocktail and 1 mmol/l EDTA (pH 7.4). The homogenate was centrifuged for 20 min (131,700 rcf, 4 °C) and the supernatant (soluble brain fraction) isolated. Subsequently, the brain pellet was homogenized in 4 ml/g PBS containing 2% (v/v) SDS using the Precellys Lysing Kit. Centrifugation was repeated and the supernatant (insoluble brain fraction) collected. The preparation of capillary-depleted brain fractions based on an established protocol. Briefly, brains were weighed, homogenized by a glass homogenizer in 6 ml/g PBS, and centrifuged for 5 min (1350 rcf, 4 °C). The pellet was resuspended in 3 ml/g PBS, containing 18% dextran (~ 70,000 g/mol; Roth), vortexed thoroughly for 1 min, and centrifuged for 10 min (4863 rcf, 4 °C). Subsequently, the supernatant (capillary-free brain fraction) was transferred, mixed thoroughly with 3 ml/g PBS, and centrifuged for 5 min (1350 rcf, 4 °C). The brain parenchymal pellet was lysed for 20 min using tissue lysis buffer containing an EDTA-free protease inhibitor cocktail and 1 mmol/l EDTA (pH 7.4) and purified for 20 min (18,620 rcf, 4 °C). Each isolated sample was snap frozen via liquid nitrogen and stored at − 80 °C.
The levels of Aβ1–40 and Aβ1–42 in soluble and insoluble brain fractions were blindly determined using Human Amyloid β (FL) Assay Kits (Immuno-Biological Laboratories) according to the manufacturer’s protocol.
Fig. 4 Peripheral PCSK9 inhibition reduces overall Aβ burden. […] Lanes were run on the same gel but were noncontinuous. Aβ1–40 and Aβ1–42 signals were verified by loading peptide standards. Data represent mean ± SEM of n = 4–14 mice per group. For statistical analyses one-way ANOVA followed by Tukey’s multiple comparison test was used (*p < 0.05; **p < 0.01)

[2] = tested on: 5xFAD mice; experiment: Plaque load quantification by immunofluorescence; assay type: in vivo, mouse; settings: 6-month-old 5xFAD mice, 1 µg/g Alirocumab for 10 weeks vs 0.9% NaCl, plaques ≥ 80 µm2, mean
Protocol: as §1, with “To sacrifice animals, mice were anesthetized with 100 µg/g ketamine (Pfizer) in combination with 10 µg/g xylazine (Bayer HealthCare) and euthanized by cervical dislocation.” left out
Mice were transcardially perfused with ice-cold PBS followed by 4% Roti®-Histofix (Roth). […] Within one hemisphere 12 sections were analyzed; 6 representatives for prefrontal cortex (corresponding to bregma from 0.86 to + 0.62 mm) and 6 for the hippocampus (corresponding to bregma from − 1.82 to − 2.06 mm). Plaque load (aggregates ≥ 80 µm^2) was quantified using the NIH ImageJ 1.52 software as described previously.
Fig. 5 Aβ plaque load of prefrontal cortex and hippocampus is reduced due to systemic PCSK9 inhibition. A Prefrontal cortex and B hippocampus of 6-month-old 5xFAD mice treated with 1 µg/g alirocumab or 0.9% NaCl for ten weeks were quantified for amyloid plaques. […]

[3] = tested on: 5xFAD mice; experiment: Fear conditioning (contextual and cued fear response, behaviour in training phase); assay type: in vivo, mouse; settings: n = 8–13 per group
Protocol: as §1
24-week-old female 5xFAD mice LRP1^BEfl/fl or LRP1^BE−/− and wildtype age-matched female littermates treated as described earlier were assessed for contextual and cued fear response adapted to previous studies, using the computerized TSE Multi Conditioning System (TSE GmbH). Movement was assessed by high-resolution infrared sensors (100 Hz) in three dimensions (14 mm distant) and documented by the FCS software. In the training phase, mice were placed in the conditioning chamber for 3 min, followed by a 30-s tone application (72 dB, 9 kHz). During the last 2 s, the tone was accompanied by shock delivery (0.7 mA). Contextual memory testing was performed 24 h-post conditioning, confronting the animals 3 min to the training context without tone application. Cued memory was assessed 2 h later, by pre-exposing the animals 3 min to a non-conditioned context, followed by a tone application for 60 s according to the training session. Freezing behavior (the absence of all but respiratory movements ≥ 2 s), motoric abilities, environmental behavior (% of explored area), and activity (≥ 30 mm/s)/hyperactivity (≥ 200 mm/s) levels were recorded automatically.
Fig. 6 Peripheral PCSK9 inhibition improves contextual memory formation of 5xFAD transgenic mice in a Fear Conditioning paradigm. 6-month-old 5xFAD mice treated with 1 µg/g Alirocumab or 0.9% NaCl for 10 weeks were analyzed for A hippocampus-dependent contextual fear response and B hippocampus-independent cued fear response in comparison to wildtype and LRP1^BE−/− littermates. […] Higher freezing behavior percentage indicates stronger memory formation. Data represent mean ± SEM of n = 8–13 mice per group. For statistical analyses one-way ANOVA followed by Tukey’s multiple comparison test was used (*p < 0.05; **p < 0.01)

[4] = tested on: 5xFAD mice; experiment: Immunoblot of liver lysates, serum, capillary-depleted brain fractions and CSF; assay type: in vivo, mouse; settings: 6-month-old 5xFAD mice, 1 µg/g Alirocumab for 10 weeks vs 0.9% NaCl
Protocol: as §1, with “To sacrifice animals, mice were anesthetized with 100 µg/g ketamine (Pfizer) in combination with 10 µg/g xylazine (Bayer HealthCare) and euthanized by cervical dislocation.” left out
Protein concentrations were determined using the Pierce™ BCA Protein Assay Kit (Thermo Fisher Scientific) according to the manufacturer’s protocol. […]
Fig. 3 Systemic PCSK9 inhibition increases peripheral LRP1 level. A Liver lysates, B serum, as well as C capillary-depleted brain fractions and D CSF samples of 6-month-old 5xFAD mice, treated repetitively with A–C 1 µg/g Alirocumab or D Evolocumab in comparison to A–C 0.9% NaCl or D non-specific human control IgG2 for 10 weeks were evaluated via immunoblot analyses for LRP1 (full length, α-chain, β-chain), LDL receptor, human as well as mouse IgG, and ApoE, and representatively presented. […]

[5] = tested on: 5xFAD mice; experiment: Serum LDL/VLDL and HDL cholesterol; assay type: in vivo, mouse; settings: 6-month-old 5xFAD mice, 1 µg/g Evolocumab for 10 weeks vs non-specific human IgG2 control antibody; n = 8–9 per group
Protocol: as §1
Serum VLDL/LDL and HDL cholesterol were separated and concentrations blindly determined using the Cholesterol Assay Kit—HDL and LDL/VLDL (Abcam) according to the manufacturer’s protocol.
Supplementary Fig. 2 Systemic PCSK9 inhibition reduces serum LDL/VLDL and free PCSK9 levels. (A) Serum LDL/VLDL- and (B) HDL-cholesterol levels of 6-months-old 5xFAD mice, treated repetitively with 1 µg/g Evolocumab or non-specific human IgG2 control antibody for ten weeks were assessed via ELISA. […] Levels of immunoprecipitated PCSK9 were evaluated via immunoblot analyses and representatively presented

[6] = molecular target: T1, PCSK9 (Mus musculus, UniProt Q80W65); experiment: Free circulating PCSK9 in serum (immunoprecipitation with crosslinked Evolocumab, immunoblot); assay type: in vivo; settings: 6-month-old 5xFAD mice, 1 µg/g Evolocumab for 10 weeks vs non-specific human IgG2 control antibody
T1 construct: substantially decreases the amount of free circulating PCSK9; from tissue; host or cells: serum of 6-month-old 5xFAD mice
T1 sequence (Q80W65 156-694): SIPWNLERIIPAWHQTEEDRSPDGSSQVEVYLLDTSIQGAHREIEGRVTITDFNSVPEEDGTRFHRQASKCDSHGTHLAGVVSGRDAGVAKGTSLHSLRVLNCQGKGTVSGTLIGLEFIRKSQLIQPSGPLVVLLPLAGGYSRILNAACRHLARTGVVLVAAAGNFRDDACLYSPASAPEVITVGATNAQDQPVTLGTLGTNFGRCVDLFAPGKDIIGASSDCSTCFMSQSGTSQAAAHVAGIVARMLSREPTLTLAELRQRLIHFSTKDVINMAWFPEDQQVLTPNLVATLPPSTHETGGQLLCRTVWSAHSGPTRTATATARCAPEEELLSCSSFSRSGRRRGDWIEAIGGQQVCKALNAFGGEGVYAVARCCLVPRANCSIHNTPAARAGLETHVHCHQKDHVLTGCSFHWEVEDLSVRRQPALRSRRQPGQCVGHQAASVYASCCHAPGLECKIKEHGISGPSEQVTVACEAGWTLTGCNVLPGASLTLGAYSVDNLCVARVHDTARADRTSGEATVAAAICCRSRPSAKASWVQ
Protocol: Precleared serum via raw Protein A Agarose (Roche) was diluted in PBS containing an EDTA-free protease inhibitor cocktail and incubated with Protein A Agarose crosslinked to Evolocumab overnight at 4 °C. Beads were washed three times with PBS, followed by elution in 100 mmol/l glycine (pH 2.7) and neutralization with 500 mmol/l tris (pH 8.0).
Supplementary Fig. 2 Systemic PCSK9 inhibition reduces serum LDL/VLDL and free PCSK9 levels. (A) Serum LDL/VLDL- and (B) HDL-cholesterol levels of 6-months-old 5xFAD mice, treated repetitively with 1 µg/g Evolocumab or non-specific human IgG2 control antibody for ten weeks were assessed via ELISA. Data represents mean ± SEM of n = 8 - 9 mice per group. For statistical analyses unpaired two-tailed t-test was used (*p <0.05). (C) Additionally, serum samples were precleared by using raw Protein A Agarose and incubated with Protein A Agarose crosslinked to Evolocumab. Levels of immunoprecipitated PCSK9 were evaluated via immunoblot analyses and representatively presented

[7] = 5xFAD LRP1BE−/− mice, 1 µg/g Alirocumab for 10 weeks vs 0.9% NaCl
[8] = 6-month-old female 5xFAD mice, 1 µg/g Alirocumab i.p. weekly for 10 weeks vs 0.9% NaCl, mean
[9] = 6-month-old 5xFAD mice, 1 µg/g Alirocumab for 10 weeks vs 0.9% NaCl

Row | free PCSK9 level in serum [6] | Molecule | soluble and insoluble Aβ1–40 and Aβ1–42 levels vs control-treated mice [1, 7] | reduction of insoluble brain Aβ1–40 [1, 8] | reduction of insoluble brain Aβ1–42 [1, 8] | reduction of soluble brain Aβ1–40 [1, 8] | reduction of soluble brain Aβ1–42 [1, 8] | reduction of plaque load, hippocampus ([2]; n = 3–4 per group) | reduction of plaque load, prefrontal cortex ([2]; n = 8 per group) | hippocampus-dependent learning capacity (contextual fear) [3, 7] | hippocampus-independent cued fear response ([3]; 5xFAD, 5xFAD LRP1BE−/− and wildtype littermates, PCSK9 inhibition or control, 2 h after contextual test) | contextual fear response (freezing) vs control-treated 5xFAD mice ([3]; 6-month-old 5xFAD mice, 1 µg/g Alirocumab for 10 weeks vs 0.9% NaCl, 24 h post-training) | activity and hyperactivity levels and basal freezing during the conditioning phase [3, 9] | motoric abilities and environmental behavior during the conditioning phase [3, 9] | contextual freezing vs control-treated wildtype littermates ([3]; 6-month-old 5xFAD mice, 1 µg/g Alirocumab for 10 weeks, 24 h post-training) | contextual freezing, treated vs control-treated wildtype animals ([3]; wildtype littermates, 1 µg/g Alirocumab for 10 weeks vs 0.9% NaCl) | peripheral LRP1 level (liver lysates) [4] | serum LDL/VLDL-cholesterol level [5]
1 | – | Alirocumab: FDA-approved monoclonal anti-PCSK9 antibody (Sanofi) | no significant difference | ~ 44% | ~ 38% | ~ 58% | ~ 51% | ~ 23% | ~ 17% | do not significantly benefit | no significant differences | significant increased | No differences | No differences | no significant difference | did not detect any significant difference | increases | –
2 | reduces | B1 | – | – | – | – | – | – | – | – | – | – | – | – | – | – | – | reduces
